Assays:
[1] = tested on: ECHCG; test: Pre-emergence action against ECHCG; assay type: in vivo, Echinochloa crus-galli; details: pre-emergence, dosage 320 g/ha, scored visually after 3 weeks vs untreated controls
Summary of the method: (§1)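 Seeds sown in sandy loam in wood-fiber pots and covered with soil. Greenhouse growth; visual damage scored after 3 weeks versus untreated controls (100% = dead, 0% = like control).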

[2] = tested on: AMARE; test: Pre-emergence action against AMARE; assay type: in vivo, Amaranthus retroflexus; details: pre-emergence, dosage 320 g/ha, scored visually after 3 weeks vs untreated controls
Summary of the method: as §1

[3] = tested on: MATIN; test: Pre-emergence action against MATIN; assay type: in vivo, Matricaria inodora; details: Dosage 320 g/ha, pre-emergence
Summary of the method: as §1

[4] = tested on: STEME; test: Pre-emergence action against STEME; assay type: in vivo, Stellaria media; details: Dosage 320 g/ha, pre-emergence
Summary of the method: as §1

[5] = tested on: VERPE; test: Pre-emergence action against VERPE; assay type: in vivo, Veronica persica; details: Dosage 320 g/ha, pre-emergence
Summary of the method: as §1

[6] = tested on: ECHCG; test: Post-emergence action against ECHCG; assay type: in vivo, Echinochloa crus-galli; details: post-emergence, dosage 80 g/ha, visual assessment about 3 weeks after treatment vs untreated controls
Summary of the method: (§2)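 Weeds grown in sandy loam in greenhouse, treated at one-leaf stage (2–3 weeks after sowing) with WP or EC formulations sprayed as aqueous suspension/emulsion at 600 to […] water with 0.2% wetting agent. Visual rating after about 3 weeks versus untreated controls, as % herbicidal action (100% = plants dead, 0% = like control).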

[7] = tested on: SETVI; test: Post-emergence action against SETVI; assay type: in vivo, Setaria viridis; details: post-emergence, dosage 80 g/ha, visual assessment about 3 weeks after treatment vs untreated controls
Procedure: (§3) Seeds of monocotyledonous and dicotyledonous weed and crop plants are laid out in sandy loam soil in wood-fiber pots, covered with soil and cultivated in a greenhouse under good growth conditions. 2 to 3 weeks after sowing, the test plants are treated at the one-leaf stage. The compounds of the invention, formulated in the form of wettable powders (WP) or as emulsion concentrates (EC), are then sprayed onto the green parts of the plants in the form of an aqueous suspension or emulsion at a water application rate equating to […], with addition of 0.2% wetting agent. After the test plants have been left to stand in the greenhouse under optimal growth conditions for about 3 weeks, the action of the preparations is assessed visually in comparison to untreated controls (herbicidal action in percent (%): 100% activity=the plants have died, 0% activity=like control plants). […] At the same time, inventive compounds leave Gramineae crops such as barley, wheat, rye, millet/Sorghum, corn or rice virtually undamaged when applied post-emergence, even at high active ingredient dosages. In addition, some substances are also harmless to dicotyledonous crops such as soya, cotton, oilseed rape, sugar beet or potatoes. Some of the compounds according to the invention have high selectivity and are therefore suitable for controlling unwanted vegetation in agricultural crops by the post-emergence method. The data of Tables B18 to B34 below illustrate, in an exemplary manner, the […] herbicidal action of the compounds according to the invention, the herbicidal activity being stated in percent.

[8] = tested on: AMARE; test: Post-emergence action against AMARE; assay type: in vivo, Amaranthus retroflexus; details: post-emergence, dosage 80 g/ha, visual assessment about 3 weeks after treatment vs untreated controls
Summary of the method: as §2

[9] = tested on: MATIN; test: Post-emergence action against MATIN; assay type: in vivo, Matricaria inodora; details: post-emergence, dosage 80 g/ha, visual assessment about 3 weeks after treatment vs untreated controls
Summary of the method: as §2

[10] = tested on: PHBPU; test: Post-emergence action against PHBPU; assay type: in vivo, Pharbitis purpurea; details: post-emergence, dosage 80 g/ha
Summary of the method: as §2

[11] = tested on: POLCO; test: Post-emergence action against POLCO; assay type: in vivo, Polygonum convolvulus; details: post-emergence, dosage 80 g/ha
Procedure: as §3

[12] = tested on: STEME; test: Post-emergence action against STEME; assay type: in vivo, Stellaria media; details: post-emergence, dosage 80 g/ha
Summary of the method: as §2

[13] = tested on: VIOTR; test: Post-emergence action against VIOTR; assay type: in vivo, Viola tricolor; details: post-emergence, dosage 80 g/ha
Summary of the method: as §2

[14] = tested on: VERPE; test: Post-emergence action against VERPE; assay type: in vivo, Veronica persica; details: dosage 80 g/ha
Summary of the method: as §2

[15] = tested on: ALOMY; test: Pre-emergence action against ALOMY; assay type: in vivo, Alopecurus myosuroides; details: dosage 320 g/ha; pre-emergence; scored visually after 3 weeks vs untreated controls; 100% = plants have died, 0% = like control plants
Summary of the method: as §1

[16] = tested on: AVEFA; test: Pre-emergence action against AVEFA; assay type: in vivo, Avena fatua; details: dosage 320 g/ha, scored visually after 3 weeks vs untreated controls
Text: (§4) Seeds of monocotyledonous and dicotyledonous weed plants and crop plants are laid out in sandy loam soil in wood-fiber pots and covered with soil. The compounds of the invention, formulated in the form of wettable powders (WP) or as emulsion concentrates (EC), are then applied to the surface of the covering soil in the form of an aqueous suspension or emulsion at a water application rate equating to […], with addition of 0.2% wetting agent. After the treatment, the pots are placed in a greenhouse and kept under good growth conditions for the trial plants. The damage to the test plants is scored visually after a test period of 3 weeks by comparison with untreated controls (herbicidal activity in percent (%): 100% activity=the plants have died, 0% activity=like control plants).

[17] = tested on: CYPES; test: Pre-emergence action against CYPES; assay type: in vivo, Cyperus esculentus; details: pre-emergence, dosage 320 g/ha, scored visually after 3 weeks vs untreated controls
Text: as §4

[18] = tested on: SETVI; test: Pre-emergence action against SETVI; assay type: in vivo, Setaria viridis; details: pre-emergence, dosage 320 g/ha, scored visually after 3 weeks vs untreated controls
Summary of the method: as §1

[19] = tested on: ABUTH; test: Pre-emergence action against ABUTH; assay type: in vivo, Abutilon theophrasti; details: pre-emergence, dosage 320 g/ha, scored visually after 3 weeks vs untreated controls
Summary of the method: as §1

[20] = tested on: PHBPU; test: Pre-emergence action against PHBPU; assay type: in vivo, Pharbitis purpurea; details: Dosage 320 g/ha, pre-emergence
Text: as §4

[21] = tested on: VIOTR; test: Pre-emergence action against VIOTR; assay type: in vivo, Viola tricolor; details: Dosage 320 g/ha, pre-emergence
Summary of the method: as §1

[22] = tested on: CYPES; test: Post-emergence action against CYPES; assay type: in vivo, Cyperus esculentus; details: post-emergence, dosage 80 g/ha, visual assessment about 3 weeks after treatment vs untreated controls
Procedure: as §3

[23] = tested on: ABUTH; test: Post-emergence action against ABUTH; assay type: in vivo, Abutilon theophrasti; details: post-emergence, dosage 80 g/ha, visual assessment about 3 weeks after treatment vs untreated controls
Summary of the method: as §2

[24] = tested on: POLCO; test: Pre-emergence action against POLCO; assay type: in vivo, Polygonum convolvulus; details: Dosage 320 g/ha, pre-emergence
Text: as §4

Structure (SMILES) | Pre-emergence action against ECHCG (herbicidal activity) [1] [%] | Pre-emergence action against AMARE (herbicidal activity) [2] [%] | Pre-emergence action against MATIN [3] [%] | Pre-emergence action against STEME [4] [%] | Pre-emergence action against VERPE [5] [%] | Post-emergence action against ECHCG (herbicidal action in percent) [6] [%] | Post-emergence action against SETVI (herbicidal action in percent) [7] [%] | Post-emergence action against AMARE (herbicidal action in percent) [8] [%] | Post-emergence action against MATIN (herbicidal action in percent) [9] [%] | Post-emergence action against PHBPU [10] | Post-emergence action against STEME [12] | Post-emergence action against VIOTR [13] | Post-emergence action against VERPE [14] | Pre-emergence action against ALOMY (herbicidal activity in percent) [15] [%] | Pre-emergence action against AVEFA (herbicidal activity) [16] [%] | Pre-emergence action against CYPES (herbicidal activity) [17] [%] | SETVI (Table B8, pre-emergence herbicidal activity) [18] [%] | Pre-emergence action against ABUTH (herbicidal activity) [19] [%] | Pre-emergence action against VIOTR [21] [%] | Post-emergence action against ABUTH (herbicidal action in percent) [23] [%] | other results
CCn1nnnc1NC(=O)c1ccc(C)c(C(C)=O)c1Cl [2-134] | 80 | 100 | 90 | 90 | 100 | 90 | 80 | 90 | 90 | 80 | 100 | 100 | 90 |  |  |  |  |  |  |  | Post-emergence action against POLCO [11]: 80
CCCn1nnnc1NC(=O)c1ccc(C(F)(F)F)c(C(=O)C2CC2)c1Br [3-197] | 100 | 100 | 100 | 100 | 100 | 90 | 90 | 100 | 90 | 100 | 100 | 100 | 80 | 90 | 90 | 80 | 100 | 100 | 100 | 90 | Pre-emergence action against PHBPU [20]: 90%; Post-emergence action against CYPES (herbicidal action in percent) [22]: 90%
CCCn1nnnc1NC(=O)c1ccc(C(F)(F)F)c(C(=O)C2CC2)c1OC [3-50] |  | 100 | 100 | 100 | 100 | 100 | 100 | 100 | 100 | 100 | 100 | 100 | 100 | 100 | 100 | 90 | 100 | 100 | 100 | 100 | Pre-emergence action against PHBPU [20]: 80%; Post-emergence action against CYPES (herbicidal action in percent) [22]: 80%
CCCn1nnnc1NC(=O)c1ccc(I)c(C(C)=O)c1Cl [3-192] | 100 | 100 | 100 | 100 |  | 100 | 100 | 80 | 100 | 80 | 100 | 100 |  | 90 | 90 | 100 | 100 | 100 | 100 | 100 | Pre-emergence action against PHBPU [20]: 100%; Post-emergence action against CYPES (herbicidal action in percent) [22]: 80%
CCCn1nnnc1NC(=O)c1ccc(C(F)(F)F)c(C(C)=O)c1SC [3-58] | 100 | 100 | 100 | 90 | 90 | 100 | 80 | 100 | 100 | 90 | 100 | 100 | 80 | 90 | 80 | 90 |  | 100 | 100 | 100 | Pre-emergence action against POLCO [24]: 80%; Post-emergence action against CYPES (herbicidal action in percent) [22]: 100%
CCCn1nnnc1NC(=O)c1ccc(C(F)(F)F)c(C(C)=O)c1Cl [3-137] | 100 | 100 | 100 | 100 | 90 | 90 | 100 | 100 | 100 | 100 | 100 | 100 | 90 | 90 | 80 | 90 | 90 | 100 | 100 | 90 | Pre-emergence action against PHBPU [20]: 100%; Post-emergence action against POLCO [11]: 90
